# Experimental data as given in PMC8371461 (Frontiers in Pharmacology, 2021).
# Tests used:
# [1] = target: T1, ABL1(Y253F)-phosphorylated (Homo sapiens, UniProt P00519, Y253F); assay: kinome scan; type: binding; settings: 10 µM
# T1 construct: purchased DiscoverX (KINOMEscan)
# [2] = target: T2, AURKA (Homo sapiens, UniProt O14965); assay: kinome scan; type: binding; settings: 10 µM
# T2 construct: purchased DiscoverX (KINOMEscan)
# [3] = target: T3, BMPR1B (Homo sapiens, UniProt O00238); assay: kinome scan; type: binding; settings: 10 µM
# T3 construct: purchased DiscoverX (KINOMEscan)
# T3 sequence (O00238 14-502): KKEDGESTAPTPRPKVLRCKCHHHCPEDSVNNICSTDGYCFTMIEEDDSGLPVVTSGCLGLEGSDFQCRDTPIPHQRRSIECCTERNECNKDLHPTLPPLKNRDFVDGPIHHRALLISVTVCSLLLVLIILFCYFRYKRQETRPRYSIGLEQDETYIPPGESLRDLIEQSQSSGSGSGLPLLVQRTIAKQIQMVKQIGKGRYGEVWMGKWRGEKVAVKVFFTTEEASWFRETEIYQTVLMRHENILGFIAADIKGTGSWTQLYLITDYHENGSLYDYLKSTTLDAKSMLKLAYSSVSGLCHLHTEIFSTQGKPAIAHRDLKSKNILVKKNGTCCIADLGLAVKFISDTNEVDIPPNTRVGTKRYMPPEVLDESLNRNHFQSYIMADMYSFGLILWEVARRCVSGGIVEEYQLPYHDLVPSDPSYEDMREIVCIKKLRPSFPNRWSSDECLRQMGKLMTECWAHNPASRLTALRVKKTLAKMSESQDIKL
# [4] = target: T4, CAMK1D (Homo sapiens, UniProt Q8IU85); assay: kinome scan; type: binding; settings: 10 µM
# T4 construct: purchased DiscoverX (KINOMEscan)
# [5] = target: T5, CDK2 (Homo sapiens, UniProt P24941); assay: kinome scan; type: binding; settings: 10 µM
# T5 construct: purchased DiscoverX (KINOMEscan)
# [6] = target: T6, CHEK1 (Homo sapiens, UniProt O14757); assay: kinome scan; type: binding
# T6 construct: purchased DiscoverX (KINOMEscan)
# T6 sequence (O14757 whole entry): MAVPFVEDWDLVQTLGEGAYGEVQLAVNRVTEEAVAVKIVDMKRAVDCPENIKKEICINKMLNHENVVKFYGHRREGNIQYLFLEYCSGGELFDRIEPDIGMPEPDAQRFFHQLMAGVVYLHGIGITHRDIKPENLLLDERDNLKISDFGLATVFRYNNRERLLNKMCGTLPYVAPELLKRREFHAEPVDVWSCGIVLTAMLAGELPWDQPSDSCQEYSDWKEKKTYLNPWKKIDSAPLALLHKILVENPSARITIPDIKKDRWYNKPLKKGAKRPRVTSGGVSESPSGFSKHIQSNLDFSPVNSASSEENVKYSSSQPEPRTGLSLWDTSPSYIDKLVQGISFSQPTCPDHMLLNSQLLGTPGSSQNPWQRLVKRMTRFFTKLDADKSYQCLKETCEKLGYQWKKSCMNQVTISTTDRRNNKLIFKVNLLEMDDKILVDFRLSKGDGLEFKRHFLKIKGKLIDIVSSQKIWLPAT
# [7] = target: T7, CTK (Homo sapiens, UniProt P42679); assay: kinome scan; type: binding; settings: 10 µM
# T7 construct: purchased DiscoverX (KINOMEscan)
# T7 sequence (P42679 whole entry): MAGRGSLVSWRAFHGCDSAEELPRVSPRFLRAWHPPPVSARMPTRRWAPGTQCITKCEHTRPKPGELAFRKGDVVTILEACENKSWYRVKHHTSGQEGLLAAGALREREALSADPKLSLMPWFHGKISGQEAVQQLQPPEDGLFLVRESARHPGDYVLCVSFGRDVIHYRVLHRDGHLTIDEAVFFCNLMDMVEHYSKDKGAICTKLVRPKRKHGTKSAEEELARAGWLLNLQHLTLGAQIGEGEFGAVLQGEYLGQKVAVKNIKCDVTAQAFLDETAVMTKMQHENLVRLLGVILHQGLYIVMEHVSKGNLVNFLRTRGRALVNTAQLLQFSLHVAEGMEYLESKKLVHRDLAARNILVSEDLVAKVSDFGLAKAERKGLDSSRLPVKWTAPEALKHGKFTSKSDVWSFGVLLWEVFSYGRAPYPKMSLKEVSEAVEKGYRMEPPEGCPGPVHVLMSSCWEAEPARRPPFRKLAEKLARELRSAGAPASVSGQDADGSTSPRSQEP
# [8] = target: T8, FGFR2 (Homo sapiens, UniProt P21802); assay: kinome scan; type: binding; settings: 10 µM
# T8 construct: purchased DiscoverX (KINOMEscan)
# [9] = target: T9, FLT3(D835H) (Homo sapiens, UniProt P36888, D835H); assay: kinome scan; type: binding; settings: 10 µM
# T9 construct: purchased DiscoverX (KINOMEscan)
# [10] = target: FLT3(ITD); assay: kinome scan; type: binding, human; settings: 10 µM
# [11] = target: T10, GCN2(Kin.Dom.2S808G) (Homo sapiens, UniProt Q9P2K8, S808G); assay: kinome scan; type: binding; settings: 10 µM
# T10 construct: GCN2(Kin.Dom.2S808G); purchased DiscoverX (KINOMEscan)
# T10 sequence (Q9P2K8 590-1001 S808G limits assumed): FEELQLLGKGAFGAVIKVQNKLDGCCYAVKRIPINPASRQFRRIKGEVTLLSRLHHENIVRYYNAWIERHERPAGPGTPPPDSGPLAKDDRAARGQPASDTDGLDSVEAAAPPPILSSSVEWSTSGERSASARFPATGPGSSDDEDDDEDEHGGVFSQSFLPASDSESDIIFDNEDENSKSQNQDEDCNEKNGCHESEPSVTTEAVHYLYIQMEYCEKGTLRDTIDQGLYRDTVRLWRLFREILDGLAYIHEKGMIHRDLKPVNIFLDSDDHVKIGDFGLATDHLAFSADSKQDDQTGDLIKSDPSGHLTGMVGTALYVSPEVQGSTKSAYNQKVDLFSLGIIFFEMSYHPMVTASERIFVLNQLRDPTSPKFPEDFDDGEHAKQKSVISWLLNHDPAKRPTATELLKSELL
# [12] = target: T11, JNK2 (Homo sapiens, UniProt P45984); assay: kinome scan; type: binding; settings: 10 µM
# T11 construct: purchased DiscoverX (KINOMEscan)
# T11 sequence (P45984 whole entry): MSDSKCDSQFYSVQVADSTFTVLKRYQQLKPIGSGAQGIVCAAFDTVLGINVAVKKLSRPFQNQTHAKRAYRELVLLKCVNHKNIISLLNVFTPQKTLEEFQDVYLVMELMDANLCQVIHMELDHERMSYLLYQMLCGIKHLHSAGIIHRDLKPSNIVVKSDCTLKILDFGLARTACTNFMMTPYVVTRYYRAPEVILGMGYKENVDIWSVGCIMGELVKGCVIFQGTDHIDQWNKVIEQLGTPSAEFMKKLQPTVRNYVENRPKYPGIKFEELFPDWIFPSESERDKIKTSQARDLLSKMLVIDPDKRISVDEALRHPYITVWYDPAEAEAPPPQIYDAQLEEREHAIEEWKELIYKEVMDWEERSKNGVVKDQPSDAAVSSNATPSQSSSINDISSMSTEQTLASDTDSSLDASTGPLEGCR
# [13] = target: T12, KIT(L576P) (Homo sapiens, UniProt P10721, L576P); assay: kinome scan; type: binding; settings: 10 µM
# T12 construct: purchased DiscoverX (KINOMEscan)
# [14] = target: T13, LRRK2 (Homo sapiens, UniProt Q5S007); assay: kinome scan; type: binding; settings: 10 µM
# T13 construct: purchased DiscoverX (KINOMEscan)
# [15] = target: T14, LZK (Homo sapiens, UniProt O43283); assay: kinome scan; type: binding; settings: 10 µM
# T14 construct: purchased DiscoverX (KINOMEscan)
# T14 sequence (O43283 whole entry): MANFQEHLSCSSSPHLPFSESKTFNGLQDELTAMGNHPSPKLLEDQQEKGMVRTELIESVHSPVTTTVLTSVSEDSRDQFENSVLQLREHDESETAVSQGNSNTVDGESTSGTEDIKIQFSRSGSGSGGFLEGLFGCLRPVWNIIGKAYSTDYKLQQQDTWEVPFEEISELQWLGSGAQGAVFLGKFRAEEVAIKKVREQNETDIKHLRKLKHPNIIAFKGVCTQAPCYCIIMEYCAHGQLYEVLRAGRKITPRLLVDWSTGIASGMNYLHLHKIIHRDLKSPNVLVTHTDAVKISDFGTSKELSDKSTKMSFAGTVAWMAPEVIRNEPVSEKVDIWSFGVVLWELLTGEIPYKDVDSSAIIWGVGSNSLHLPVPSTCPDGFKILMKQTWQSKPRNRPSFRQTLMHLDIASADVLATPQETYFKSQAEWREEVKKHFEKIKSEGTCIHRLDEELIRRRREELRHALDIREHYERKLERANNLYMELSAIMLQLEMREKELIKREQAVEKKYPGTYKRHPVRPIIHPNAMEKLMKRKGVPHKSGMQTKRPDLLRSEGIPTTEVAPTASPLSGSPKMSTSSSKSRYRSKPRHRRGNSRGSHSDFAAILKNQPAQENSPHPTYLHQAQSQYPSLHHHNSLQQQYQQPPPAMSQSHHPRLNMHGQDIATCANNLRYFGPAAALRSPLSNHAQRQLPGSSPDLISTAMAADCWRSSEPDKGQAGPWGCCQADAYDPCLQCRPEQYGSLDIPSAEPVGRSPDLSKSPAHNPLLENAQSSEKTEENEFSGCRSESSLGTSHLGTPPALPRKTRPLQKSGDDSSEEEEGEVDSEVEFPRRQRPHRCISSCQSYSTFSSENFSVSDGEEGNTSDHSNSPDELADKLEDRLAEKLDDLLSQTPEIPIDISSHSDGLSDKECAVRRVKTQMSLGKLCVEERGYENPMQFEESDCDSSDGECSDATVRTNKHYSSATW
# [16] = target: T15, MYLK4 (Homo sapiens, UniProt Q86YV6); assay: kinome scan; type: binding; settings: 10 µM
# T15 construct: purchased DiscoverX (KINOMEscan)
# [17] = target: T16, MYO3B (Homo sapiens, UniProt Q8WXR4); assay: kinome scan; type: binding; settings: 10 µM
# T16 construct: purchased DiscoverX (KINOMEscan)
# [18] = target: T17, PFTAIRE2 (Homo sapiens, UniProt Q96Q40); assay: kinome scan; type: binding; settings: 10 µM
# T17 construct: purchased DiscoverX (KINOMEscan)
# [19] = target: T18, PKNB(M.tuberculosis) (Mycobacterium tuberculosis, UniProt P9WI81); assay: kinome scan; type: binding; settings: 10 µM
# T18 construct: purchased DiscoverX (KINOMEscan)
# T18 sequence (P9WI81 whole entry): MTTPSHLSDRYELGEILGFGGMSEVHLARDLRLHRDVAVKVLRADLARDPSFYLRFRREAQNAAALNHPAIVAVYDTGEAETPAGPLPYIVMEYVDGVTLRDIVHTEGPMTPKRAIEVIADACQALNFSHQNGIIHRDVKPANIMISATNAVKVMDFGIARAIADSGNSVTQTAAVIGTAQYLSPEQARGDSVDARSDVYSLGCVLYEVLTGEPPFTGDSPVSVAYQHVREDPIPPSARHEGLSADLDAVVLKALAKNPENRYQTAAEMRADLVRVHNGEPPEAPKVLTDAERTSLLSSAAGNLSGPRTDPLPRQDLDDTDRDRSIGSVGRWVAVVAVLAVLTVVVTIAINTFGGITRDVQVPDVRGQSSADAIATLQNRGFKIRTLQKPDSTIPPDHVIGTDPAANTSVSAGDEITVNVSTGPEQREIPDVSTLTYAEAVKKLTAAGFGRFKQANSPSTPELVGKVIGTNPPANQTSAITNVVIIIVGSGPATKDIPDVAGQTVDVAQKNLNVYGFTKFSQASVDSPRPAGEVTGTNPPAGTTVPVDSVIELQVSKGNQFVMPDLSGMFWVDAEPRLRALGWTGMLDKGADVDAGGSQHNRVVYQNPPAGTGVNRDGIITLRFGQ
# [20] = target: T19, PLK4 (Homo sapiens, UniProt O00444); assay: kinome scan; type: binding; settings: 10 µM
# T19 construct: purchased DiscoverX (KINOMEscan)
# [21] = target: T20, RIPK4 (Homo sapiens, UniProt P57078); assay: kinome scan; type: binding; settings: 10 µM
# T20 construct: purchased DiscoverX (KINOMEscan)
# [22] = target: T21, TAOK3 (Homo sapiens, UniProt Q9H2K8); assay: kinome scan; type: binding; settings: 10 µM
# T21 construct: purchased DiscoverX (KINOMEscan)
# [23] = target: T22, TRKA (Homo sapiens, UniProt P04629); assay: kinome scan; type: binding; settings: 10 µM
# T22 construct: purchased DiscoverX (KINOMEscan)
# T22 sequence (P04629 33-796): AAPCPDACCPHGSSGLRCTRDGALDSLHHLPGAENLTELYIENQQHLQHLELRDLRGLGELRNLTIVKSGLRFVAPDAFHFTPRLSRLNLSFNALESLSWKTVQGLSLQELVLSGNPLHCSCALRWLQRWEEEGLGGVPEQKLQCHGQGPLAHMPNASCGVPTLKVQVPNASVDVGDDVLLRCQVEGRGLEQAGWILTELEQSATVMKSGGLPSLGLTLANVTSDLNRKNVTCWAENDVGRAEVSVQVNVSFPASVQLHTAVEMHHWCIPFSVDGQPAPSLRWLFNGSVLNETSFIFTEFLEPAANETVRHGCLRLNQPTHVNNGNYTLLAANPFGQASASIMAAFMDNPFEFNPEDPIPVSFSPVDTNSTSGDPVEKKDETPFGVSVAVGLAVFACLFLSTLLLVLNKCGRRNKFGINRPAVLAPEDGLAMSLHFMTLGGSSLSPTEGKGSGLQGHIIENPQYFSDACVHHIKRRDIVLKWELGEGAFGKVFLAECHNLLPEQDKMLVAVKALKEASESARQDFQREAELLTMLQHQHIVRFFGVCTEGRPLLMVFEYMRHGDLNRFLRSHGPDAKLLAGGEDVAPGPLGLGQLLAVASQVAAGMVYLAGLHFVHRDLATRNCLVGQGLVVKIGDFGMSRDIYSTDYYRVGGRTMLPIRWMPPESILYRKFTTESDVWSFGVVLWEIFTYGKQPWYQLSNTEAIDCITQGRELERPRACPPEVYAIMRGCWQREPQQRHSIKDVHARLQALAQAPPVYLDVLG
# [24] = tested on: Estrogen receptor alpha signaling; design: method as in CHEMBL1794542; settings: reported activity, data mining; ref CHEMBL1794542; cited from earlier work
# [25] = tested on: Pregnane X receptor (PXR) signaling pathway; design: method as in CHEMBL3215112; settings: reported activity, data mining; ref CHEMBL3215112; cited from earlier work
smiles,measurement,setting,value
"Nc1ccc(N=Nc2ccccc2)c(N)n1 [phenazopyridine, 2,6-diamino-3-(phenylazo)pyridine]",kinase inhibition,[1],90
same,kinase inhibition,[2],100
same,kinase inhibition,[3],95
same,kinase inhibition,[4],100
same,kinase inhibition,[5],82
same,kinase inhibition,"[6]; CHEK1, 10 µM",100
same,remaining binding at 10 µM,"[6]; CHK1, read-out: Kinome scan (% of control at 10 µM)",100%
same,kinase inhibition,[7],98
same,kinase inhibition,[8],93
same,remaining binding (% of control),[9],81
same,remaining binding (% of control),[10],55
same,remaining binding (% of control),[11],100
same,kinase inhibition,[12],94
same,kinase inhibition,[13],44
same,kinase inhibition,[14],100
same,kinase inhibition,[15],100
same,kinase inhibition,[16],87
same,kinase inhibition,[17],95
same,kinase inhibition,[18],96
same,remaining binding (% of control),[19],96
same,kinase inhibition,[20],89
same,kinase inhibition,[21],100
same,kinase inhibition,[22],79
same,kinase inhibition,[23],100
same,Concentration,[24],3.1 µM
same,Concentration,[25],7.9 µM
